How the values were obtained:
[1] = tested on: male Wistar rats; conditions: rat, in vivo
[2] = tested on: Hypercholesterolemic Rats; design: species or system Wistar rats; conditions: rat, in vivo

CN(C)C(=O)Oc1cccc([N+](C)(C)C)c1 [Neostigmine bromide]
Acute toxicity: state of the rats after administration [1]: all the rats were dead
LDL-cholesterol [2]: 76.6 ± 10.7 mg %
Total cholesterol [2]: 131.2 ± 11.8 mg %
